This passage reports AC50 results from ChEMBL document CHEMBL5291721, “A preclinical secondary pharmacology resource illuminates target-adverse drug reaction associations of marketed drugs” (Nat Commun, 2023).

Test [1] addresses Beta-1 adrenergic receptor (Homo sapiens, UniProt P08588). It is filed as functional.
The next test addresses Vasopressin V1a receptor (Homo sapiens, UniProt P37288).
The target of test [2] is Voltage-dependent L-type calcium channel subunit alpha-1C (Rattus norvegicus, UniProt P22002). The class given is functional.
Sequence of Voltage-dependent L-type calcium channel subunit alpha-1C (P22002 whole entry): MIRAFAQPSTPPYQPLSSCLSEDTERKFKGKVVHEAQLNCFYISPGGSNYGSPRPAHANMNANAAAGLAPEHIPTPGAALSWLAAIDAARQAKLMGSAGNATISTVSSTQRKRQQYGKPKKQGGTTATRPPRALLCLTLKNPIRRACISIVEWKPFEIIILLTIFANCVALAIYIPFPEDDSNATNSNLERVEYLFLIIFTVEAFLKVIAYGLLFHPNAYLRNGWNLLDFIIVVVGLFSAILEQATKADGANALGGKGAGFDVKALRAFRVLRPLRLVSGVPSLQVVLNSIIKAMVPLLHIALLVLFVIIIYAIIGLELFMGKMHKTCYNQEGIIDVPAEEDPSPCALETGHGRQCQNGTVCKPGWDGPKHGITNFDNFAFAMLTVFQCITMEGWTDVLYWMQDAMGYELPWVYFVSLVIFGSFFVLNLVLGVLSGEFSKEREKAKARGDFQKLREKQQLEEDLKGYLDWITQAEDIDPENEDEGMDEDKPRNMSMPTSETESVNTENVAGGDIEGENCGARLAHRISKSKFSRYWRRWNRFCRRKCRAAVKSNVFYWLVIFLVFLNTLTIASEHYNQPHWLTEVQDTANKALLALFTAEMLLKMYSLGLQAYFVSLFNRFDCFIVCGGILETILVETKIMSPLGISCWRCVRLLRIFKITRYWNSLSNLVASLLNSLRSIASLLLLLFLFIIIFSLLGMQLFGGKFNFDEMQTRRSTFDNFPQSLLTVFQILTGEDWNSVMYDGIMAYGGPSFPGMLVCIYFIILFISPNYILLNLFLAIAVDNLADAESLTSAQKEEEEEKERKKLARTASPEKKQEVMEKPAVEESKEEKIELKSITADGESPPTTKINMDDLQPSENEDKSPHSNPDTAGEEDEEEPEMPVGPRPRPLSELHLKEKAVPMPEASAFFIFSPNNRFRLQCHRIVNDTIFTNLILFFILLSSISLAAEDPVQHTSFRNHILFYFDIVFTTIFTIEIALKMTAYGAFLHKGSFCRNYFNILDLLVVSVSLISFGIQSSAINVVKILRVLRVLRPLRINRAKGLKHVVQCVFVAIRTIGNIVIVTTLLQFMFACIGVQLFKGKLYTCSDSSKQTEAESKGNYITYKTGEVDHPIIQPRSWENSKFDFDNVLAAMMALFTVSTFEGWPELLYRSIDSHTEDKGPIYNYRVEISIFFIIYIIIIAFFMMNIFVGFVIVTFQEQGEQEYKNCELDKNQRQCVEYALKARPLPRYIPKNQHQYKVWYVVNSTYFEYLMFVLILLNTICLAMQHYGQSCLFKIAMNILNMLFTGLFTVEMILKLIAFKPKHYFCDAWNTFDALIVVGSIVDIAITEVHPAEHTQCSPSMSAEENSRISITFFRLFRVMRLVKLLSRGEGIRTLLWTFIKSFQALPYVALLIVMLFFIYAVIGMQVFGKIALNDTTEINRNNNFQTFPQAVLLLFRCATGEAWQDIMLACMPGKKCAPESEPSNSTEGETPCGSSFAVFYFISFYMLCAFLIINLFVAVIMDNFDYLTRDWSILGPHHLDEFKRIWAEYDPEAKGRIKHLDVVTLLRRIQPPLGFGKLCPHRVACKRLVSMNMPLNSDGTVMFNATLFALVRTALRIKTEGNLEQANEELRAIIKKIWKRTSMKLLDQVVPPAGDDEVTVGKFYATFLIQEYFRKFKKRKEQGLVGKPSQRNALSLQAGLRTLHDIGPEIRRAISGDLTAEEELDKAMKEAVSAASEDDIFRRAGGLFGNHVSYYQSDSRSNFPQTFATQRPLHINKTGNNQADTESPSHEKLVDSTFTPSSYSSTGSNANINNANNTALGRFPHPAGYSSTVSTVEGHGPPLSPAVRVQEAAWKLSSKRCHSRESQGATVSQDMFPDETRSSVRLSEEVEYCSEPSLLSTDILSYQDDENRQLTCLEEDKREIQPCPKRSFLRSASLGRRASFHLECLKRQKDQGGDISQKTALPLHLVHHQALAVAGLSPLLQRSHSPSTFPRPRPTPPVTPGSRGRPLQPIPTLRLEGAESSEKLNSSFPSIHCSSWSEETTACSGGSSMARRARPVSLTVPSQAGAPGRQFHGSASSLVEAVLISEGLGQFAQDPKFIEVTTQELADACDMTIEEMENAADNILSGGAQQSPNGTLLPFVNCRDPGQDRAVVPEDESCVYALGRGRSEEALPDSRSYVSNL
Test [3] concerns the target T1, Cholecystokinin receptor type A (Homo sapiens, UniProt P32238).
T1 sequence (P32238 whole entry): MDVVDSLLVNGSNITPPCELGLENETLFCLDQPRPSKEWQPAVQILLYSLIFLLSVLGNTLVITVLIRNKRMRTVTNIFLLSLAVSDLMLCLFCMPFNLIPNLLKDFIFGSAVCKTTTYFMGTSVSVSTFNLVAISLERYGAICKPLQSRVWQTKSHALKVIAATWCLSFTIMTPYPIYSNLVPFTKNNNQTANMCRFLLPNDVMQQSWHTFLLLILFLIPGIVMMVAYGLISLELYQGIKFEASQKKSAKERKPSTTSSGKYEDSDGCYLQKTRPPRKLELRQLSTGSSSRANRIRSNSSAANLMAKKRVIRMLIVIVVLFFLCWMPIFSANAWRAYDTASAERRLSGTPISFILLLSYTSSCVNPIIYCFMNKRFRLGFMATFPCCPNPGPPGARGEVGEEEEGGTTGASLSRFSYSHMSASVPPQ

In test [4] the target is T2, Muscarinic acetylcholine receptor M2 (Homo sapiens, UniProt P08172).
T2 sequence (P08172 whole entry): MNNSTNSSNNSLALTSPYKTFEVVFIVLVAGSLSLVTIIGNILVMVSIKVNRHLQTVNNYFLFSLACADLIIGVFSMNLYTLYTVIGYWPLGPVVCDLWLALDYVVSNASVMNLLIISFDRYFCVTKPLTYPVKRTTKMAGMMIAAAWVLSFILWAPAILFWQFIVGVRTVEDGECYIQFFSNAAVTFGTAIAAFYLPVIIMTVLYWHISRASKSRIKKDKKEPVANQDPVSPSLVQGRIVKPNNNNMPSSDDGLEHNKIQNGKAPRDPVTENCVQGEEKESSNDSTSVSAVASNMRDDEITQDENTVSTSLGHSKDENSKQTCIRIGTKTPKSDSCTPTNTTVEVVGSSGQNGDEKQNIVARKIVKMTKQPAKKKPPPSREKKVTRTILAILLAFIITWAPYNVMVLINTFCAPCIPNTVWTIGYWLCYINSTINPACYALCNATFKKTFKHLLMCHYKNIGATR
The class given is functional, cell-based.

Test [5] deals with T2, Muscarinic acetylcholine receptor M2. It is filed as functional, cell-based. The source holds these as a separate data set.
In the next test the target is T3, Estrogen receptor (Homo sapiens, UniProt P03372).
T3 sequence (P03372 whole entry): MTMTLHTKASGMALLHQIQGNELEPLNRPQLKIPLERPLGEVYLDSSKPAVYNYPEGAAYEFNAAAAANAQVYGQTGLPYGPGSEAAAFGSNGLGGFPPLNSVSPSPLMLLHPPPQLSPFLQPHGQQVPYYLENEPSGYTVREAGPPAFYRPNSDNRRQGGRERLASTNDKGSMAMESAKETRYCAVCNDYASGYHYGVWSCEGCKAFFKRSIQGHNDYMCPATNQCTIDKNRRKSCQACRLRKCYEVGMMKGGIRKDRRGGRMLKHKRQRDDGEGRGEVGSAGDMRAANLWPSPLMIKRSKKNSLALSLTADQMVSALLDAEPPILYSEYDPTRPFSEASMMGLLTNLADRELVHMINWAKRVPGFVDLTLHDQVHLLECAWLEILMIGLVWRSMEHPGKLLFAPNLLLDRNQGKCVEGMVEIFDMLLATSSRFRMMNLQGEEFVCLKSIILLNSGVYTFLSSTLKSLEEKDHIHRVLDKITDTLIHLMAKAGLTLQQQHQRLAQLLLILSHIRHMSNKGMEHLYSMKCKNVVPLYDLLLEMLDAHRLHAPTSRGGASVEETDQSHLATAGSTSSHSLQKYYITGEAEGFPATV

Another test concerns the target Melanocortin receptor 3 (Homo sapiens, UniProt P41968).
Test [6] concerns the target Delta-type opioid receptor (Homo sapiens, UniProt P41143).
The target of test [7] is T4, Equilibrative nucleoside transporter 1 (Homo sapiens, UniProt Q99808).
T4 sequence (Q99808 whole entry): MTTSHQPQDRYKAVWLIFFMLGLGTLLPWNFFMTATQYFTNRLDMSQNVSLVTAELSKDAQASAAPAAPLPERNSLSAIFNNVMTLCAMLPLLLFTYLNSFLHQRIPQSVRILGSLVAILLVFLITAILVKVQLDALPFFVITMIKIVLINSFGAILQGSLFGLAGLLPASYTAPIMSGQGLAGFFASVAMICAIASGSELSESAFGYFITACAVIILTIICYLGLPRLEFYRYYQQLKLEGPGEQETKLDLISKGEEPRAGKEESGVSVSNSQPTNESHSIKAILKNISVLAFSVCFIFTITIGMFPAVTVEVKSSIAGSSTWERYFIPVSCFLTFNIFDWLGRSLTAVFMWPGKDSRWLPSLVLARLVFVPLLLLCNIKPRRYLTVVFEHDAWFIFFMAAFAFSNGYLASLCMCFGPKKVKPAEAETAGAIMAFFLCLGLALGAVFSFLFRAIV

The target in test [8] is Sodium-dependent noradrenaline transporter (Homo sapiens, UniProt P23975).
Sequence of Sodium-dependent noradrenaline transporter (P23975 whole entry): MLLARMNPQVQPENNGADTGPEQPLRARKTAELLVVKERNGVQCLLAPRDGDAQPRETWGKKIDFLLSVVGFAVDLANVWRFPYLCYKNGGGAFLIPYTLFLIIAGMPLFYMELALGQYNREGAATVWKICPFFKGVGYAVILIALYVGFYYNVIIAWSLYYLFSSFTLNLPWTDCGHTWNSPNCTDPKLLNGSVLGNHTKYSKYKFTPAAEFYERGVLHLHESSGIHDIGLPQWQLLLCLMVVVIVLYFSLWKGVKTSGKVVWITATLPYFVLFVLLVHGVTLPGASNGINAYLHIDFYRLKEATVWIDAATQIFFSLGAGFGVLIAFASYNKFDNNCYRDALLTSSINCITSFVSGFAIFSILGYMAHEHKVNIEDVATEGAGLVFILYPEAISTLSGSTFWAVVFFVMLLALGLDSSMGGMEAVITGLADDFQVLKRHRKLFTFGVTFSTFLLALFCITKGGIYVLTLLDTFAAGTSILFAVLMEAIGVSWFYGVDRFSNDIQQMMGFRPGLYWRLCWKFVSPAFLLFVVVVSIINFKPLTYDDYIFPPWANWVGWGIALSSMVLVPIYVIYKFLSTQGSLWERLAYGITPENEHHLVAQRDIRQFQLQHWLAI
For test [9], the target named is T5, Amine oxidase [flavin-containing] A (Homo sapiens, UniProt P21397).
T5 sequence (P21397 whole entry): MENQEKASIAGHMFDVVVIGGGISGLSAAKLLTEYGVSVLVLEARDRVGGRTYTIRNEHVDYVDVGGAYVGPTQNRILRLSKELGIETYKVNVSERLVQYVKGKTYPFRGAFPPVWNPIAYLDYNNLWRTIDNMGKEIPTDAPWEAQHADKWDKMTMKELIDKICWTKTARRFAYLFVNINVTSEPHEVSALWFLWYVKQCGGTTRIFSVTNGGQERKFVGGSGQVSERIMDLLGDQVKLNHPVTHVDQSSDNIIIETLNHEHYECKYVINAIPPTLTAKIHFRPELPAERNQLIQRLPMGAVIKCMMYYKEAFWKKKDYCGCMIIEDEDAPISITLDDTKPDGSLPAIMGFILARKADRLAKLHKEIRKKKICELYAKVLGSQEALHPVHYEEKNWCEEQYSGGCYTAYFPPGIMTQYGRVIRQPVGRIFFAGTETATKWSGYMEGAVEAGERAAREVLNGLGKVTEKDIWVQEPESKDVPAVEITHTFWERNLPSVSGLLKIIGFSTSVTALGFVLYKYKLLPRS
It is filed as functional.

By AC50 is commonly meant the concentration giving half of the maximal activity seen.
Note: assay procedure not described here.

Sequence of Beta-1 adrenergic receptor (P08588 whole entry): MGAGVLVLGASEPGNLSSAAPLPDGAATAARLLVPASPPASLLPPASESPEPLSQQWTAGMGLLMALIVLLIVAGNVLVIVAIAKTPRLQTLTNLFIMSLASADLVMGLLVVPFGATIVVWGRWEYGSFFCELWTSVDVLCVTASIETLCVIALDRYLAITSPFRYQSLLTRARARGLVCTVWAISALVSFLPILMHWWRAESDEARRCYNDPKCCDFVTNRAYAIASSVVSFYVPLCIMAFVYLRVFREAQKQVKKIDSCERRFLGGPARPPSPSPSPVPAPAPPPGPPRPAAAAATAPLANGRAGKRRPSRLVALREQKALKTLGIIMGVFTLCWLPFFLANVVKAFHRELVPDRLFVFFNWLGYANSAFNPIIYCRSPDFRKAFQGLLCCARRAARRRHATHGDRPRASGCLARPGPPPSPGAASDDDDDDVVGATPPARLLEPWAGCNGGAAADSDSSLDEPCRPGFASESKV
Sequence of Vasopressin V1a receptor (P37288 whole entry): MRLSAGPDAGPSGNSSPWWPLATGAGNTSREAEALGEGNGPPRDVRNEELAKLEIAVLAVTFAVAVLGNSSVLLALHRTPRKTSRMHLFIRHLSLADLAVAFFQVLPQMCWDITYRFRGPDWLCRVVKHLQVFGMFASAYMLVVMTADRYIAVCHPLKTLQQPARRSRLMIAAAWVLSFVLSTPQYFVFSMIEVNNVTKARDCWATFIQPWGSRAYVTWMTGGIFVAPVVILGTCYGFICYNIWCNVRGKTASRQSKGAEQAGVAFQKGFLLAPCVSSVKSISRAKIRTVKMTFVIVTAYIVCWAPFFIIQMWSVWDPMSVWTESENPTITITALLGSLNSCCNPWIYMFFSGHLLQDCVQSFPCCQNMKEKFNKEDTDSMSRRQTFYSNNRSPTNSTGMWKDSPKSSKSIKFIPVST
Sequence of Melanocortin receptor 3 (P41968 whole entry): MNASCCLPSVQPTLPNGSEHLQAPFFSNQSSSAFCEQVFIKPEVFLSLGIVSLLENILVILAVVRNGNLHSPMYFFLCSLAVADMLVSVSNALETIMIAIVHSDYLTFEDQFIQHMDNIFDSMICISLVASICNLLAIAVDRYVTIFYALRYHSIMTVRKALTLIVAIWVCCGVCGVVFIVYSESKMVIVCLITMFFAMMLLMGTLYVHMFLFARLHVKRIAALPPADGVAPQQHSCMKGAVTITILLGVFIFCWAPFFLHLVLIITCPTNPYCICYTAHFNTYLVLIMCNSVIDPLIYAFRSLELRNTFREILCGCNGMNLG
Sequence of Delta-type opioid receptor (P41143 whole entry): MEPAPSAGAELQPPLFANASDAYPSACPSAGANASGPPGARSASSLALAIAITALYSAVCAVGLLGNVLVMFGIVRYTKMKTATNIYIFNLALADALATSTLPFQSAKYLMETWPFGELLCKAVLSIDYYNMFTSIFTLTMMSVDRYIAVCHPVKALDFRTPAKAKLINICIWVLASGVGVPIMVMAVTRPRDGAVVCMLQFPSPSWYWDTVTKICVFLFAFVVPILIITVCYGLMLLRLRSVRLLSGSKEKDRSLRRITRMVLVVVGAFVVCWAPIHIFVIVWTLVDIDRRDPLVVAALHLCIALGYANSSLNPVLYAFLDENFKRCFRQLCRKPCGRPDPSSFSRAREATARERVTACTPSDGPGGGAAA

Consider `CC1=C(C)C(=O)C(C(CCCCCC(=O)O)c2ccccc2)=C(C)C1=O` (centres undefined) [SERATRODAST], for which the half-maximal activity concentration (AC50) (in [1]; at Vasopressin V1a receptor; in [2]; in [3]; in test [4]; in test [5]) was greater than 30 µM in each case. In addition, the half-maximal activity concentration (AC50) (on Estrogen receptor; on Melanocortin receptor 3; in [6]; in [7]; in [8]; in test [9]) was greater than 30 µM in each case.
On to `C=C1/C(=C\C=C2/CCC[C@]3(C)[C@@H]([C@H](C)/C=C/[C@@H](O)C4CC4)CC[C@@H]23)C[C@@H](O)C[C@@H]1O` [CALCIPOTRIENE], for which the AC50 (in test [1]; on Vasopressin V1a receptor; in [2]; in [3]; in [4]; in test [5]) was greater than 30 µM each time. Moreover, the concentration at half-maximal activity (AC50) at Estrogen receptor is greater than 10 µM; at Melanocortin receptor 3, greater than 30 µM; in test [6], greater than 30 µM; in test [7] it was greater than 30 µM; in test [8] it was 20 µM; in test [9], greater than 30 µM.
